The test system of one experiment is MCF-7 cells. The experiment is described as follows: MTT antiproliferative assay, MCF-7. Format: cell-based. The note with it: Homo sapiens, MCF7, 72 h, read-out: Growth inhibition (%) ± SEM; for inhibition at 10 µM: MCF-7, 10 μM; for inhibition at 30 µM: MCF-7, 30 μM. As for the experimental part:
(§1) The in vitro anticancer effects of the presented compounds were assessed using the standard MTT [3-(4,5-dimethylthiazol2-yl)-2,5-diphenyltetrazolium bromide] assay on the following human cancer cell lines: cervical (HeLa and SiHa), breast (MCF-7 and MDA-MB-231) and ovarian cancer (A2780). The selectivity of the tested compounds was determined on murine embryonal fibroblast cells (NIH/3T3). The utilised cell lines were purchased from the European Collection of Cell Cultures (Salisbury, UK). The cells were cultivated in Eagle’s minimal essential medium supplemented with 10% fetal bovine serum, 1% non-essential amino acids and 1% antibiotic-antimycotic complex (penicillin, streptomycin, amphotericin B) at 37 °C in a humidified atmosphere containing 5% CO2. All media and supplements were purchased from Lonza Group Ltd. (Basel, Switzerland). The cancer cells were seeded into 96-well plates (5000 cells/well) and incubated overnight, and the test compounds were applied in two different concentrations (10 µM and 30 µM) and incubated for another 72 h under cell-culturing conditions. […] After 72 h, 20 µL of the 5 mg/mL MTT solution was added to each well, and the plates were incubated for 4 h. The medium was removed, and the formazan crystals produced by the mitochondrial activity were dissolved in dimethyl sulfoxide (DMSO) via shaking at 37 °C for 30 min. The absorbances were measured at 545 nm using a microplate reader (SPECTROStar Nano, BMG Labtech, Offenburg, Germany). The reference agent was cisplatin, which is a widely used cytotoxic agent. The IC50 values were calculated using sigmoid curve fitting. Two independent experiments were performed with five parallel wells for each condition. Calculations were performed using the GraphPad Prism 9 software (GraphPad Software Inc., San Diego, CA, USA).

The subject of another experiment is SiHa cells. Kind of experiment: MTT antiproliferative assay, SiHa. The format is cell-based. The note with it: Homo sapiens, 72 h, read-out: Growth inhibition (%) ± SEM. As for the experimental part:
as §1

In the next experiment the test system is HeLa cells. Kind of experiment: MTT antiproliferative assay, HeLa. Format: cell-based. The note with it: Homo sapiens, 72 h, read-out: Growth inhibition (%) ± SEM. How it is done:
as §1

Another experiment relates to NIH/3T3 fibroblast cells. Kind of experiment: MTT assay on non-malignant fibroblasts (selectivity). Format: cell-based, murine. Particulars: Mus musculus, NIH3T3, 72 h, read-out: Growth inhibition (%) ± SEM; for inhibition at 10 µM: NIH/3T3, 10 μM; for inhibition at 30 µM: NIH/3T3, 30 μM. As for the experimental part: as §1
For a further experiment, the system named is A2780 cells. The experiment is described as follows: MTT antiproliferative assay, A2780. The format is cell-based. Particulars: Homo sapiens, 72 h, read-out: Growth inhibition (%) ± SEM; for inhibition at 10 µM: A2780, 10 μM; for inhibition at 30 µM: A2780, 30 μM. As for the experimental part:
as §1

In the next experiment the test system is MDA-MB-231 cells. The experiment is described as follows: MTT antiproliferative assay, MDA-MB-231. The format is cell-based. The note with it: Homo sapiens, 72 h, read-out: Growth inhibition (%) ± SEM; for inhibition at 10 µM: MDA-MB-231, 10 μM; for inhibition at 30 µM: MDA-MB-231, 30 μM. How it is done:
as §1

Take `COC(=O)[C@]1(C)CCC[C@@]2(C)[C@@H]3CC[C@@]4(CO)C[C@]3(CC[C@@H]21)C[C@H]4NCc1ccc(OC)cc1` [Compound 10, (4R,4aS,6aR,8R,9R,11aR,11bS)-Methyl 9-(hydroxymethyl)-8-((4-methoxybenzyl)amino)-4,11b-dimethyltetradecahydro-6a,9-methanocyclohepta[a]naphthalene-4-carboxylate]: the inhibition at 10 µM in the experiment on MCF-7 cells is 86.5 ± 0.88%; in the experiment on SiHa cells, less than 20%; with NIH/3T3 fibroblast cells, 20.3 ± 2.93%; with A2780 cells, 39 ± 1.87%; in the experiment with MDA-MB-231 cells, 78.7 ± 2.63%. In addition, the inhibition at 30 µM in the experiment on MCF-7 cells was found to be 100 ± 0.2%; in the experiment with SiHa cells, 97.61 ± 0.9%; in the experiment on HeLa cells, 97.65 ± 0.64%; with NIH/3T3 fibroblast cells it was 96.6 ± 1.1%; in the experiment with A2780 cells it was 98.38 ± 0.51%; with MDA-MB-231 cells, 98.09 ± 0.59%.

Take `COC(=O)[C@]1(C)CCC[C@@]2(C)[C@@H]3CC[C@@]4(CO)C[C@]3(CC[C@@H]21)C[C@H]4NCc1ccc(F)cc1` [Compound 9, (4R,4aS,6aR,8R,9R,11aR,11bS)-Methyl 8-((4-fluorobenzyl)amino)-9-(hydroxymethyl)-4,11b-dimethyltetradecahydro-6a,9-methanocyclohepta[a]naphthalene-4-carboxylate]: the inhibition at 10 µM is 79.8 ± 1.59% with MCF-7 cells; less than 20% in the experiment with SiHa cells; less than 20% in the experiment on HeLa cells; less than 20% with NIH/3T3 fibroblast cells; 73.6 ± 2.61% in the experiment with A2780 cells; 58 ± 2.59% with MDA-MB-231 cells. In addition, the inhibition at 30 µM came out at 98.07 ± 0.35% with MCF-7 cells; 86 ± 2.92% in the experiment on SiHa cells; 95.35 ± 0.58% in the experiment on HeLa cells; 93.9 ± 1.94% with NIH/3T3 fibroblast cells; 99.01 ± 0.11% in the experiment with A2780 cells; 93.42 ± 0.39% with MDA-MB-231 cells.

For `COC(=O)[C@]1(C)CCC[C@@]2(C)[C@@H]3CC[C@@]4(CO)C[C@]3(CC[C@@H]21)C[C@H]4NCc1cccc2ccccc12` [Compound 15, (4R,4aS,6aR,8R,9R,11aR,11bS)-Methyl 9-(hydroxymethyl)-4,11b-dimethyl-8-((naphthalen-1-ylmethyl)amino)tetradecahydro-6a,9-methanocyclohepta[a]naphthalene-4-carboxylate], the inhibition at 10 µM with MCF-7 cells was 54 ± 3.39%; with SiHa cells it was less than 20%; in the experiment on HeLa cells it was less than 20%; with NIH/3T3 fibroblast cells, less than 20%; in the experiment on A2780 cells, 89.5 ± 1.76%; in the experiment with MDA-MB-231 cells, 31.3 ± 1.89%. For the same compound, the inhibition at 30 µM in the experiment with MCF-7 cells was 97.43 ± 0.59%; in the experiment on SiHa cells it was 87.9 ± 1.33%; with HeLa cells it was 94.9 ± 2.04%; with NIH/3T3 fibroblast cells it was 96.5 ± 0.77%; with A2780 cells, 99.67 ± 0.49%; with MDA-MB-231 cells it was 94.2 ± 0.98%.

`COC(=O)[C@]1(C)CCC[C@@]2(C)[C@@H]3CC[C@@]4(CO)C[C@]3(CC[C@@H]21)C[C@H]4NCc1ccccc1` [Compound 8, (4R,4aS,6aR,8R,9R,11aR,11bS)-Methyl 8-(benzylamino)-9-(hydroxymethyl)-4,11b-dimethyltetradecahydro-6a,9-methanocyclohepta[a]naphthalene-4-carboxylate]: the inhibition at 10 µM is 45.4 ± 1.94% in the experiment with MCF-7 cells; less than 20% with SiHa cells; less than 20% with HeLa cells; 25.7 ± 0.97% in the experiment with NIH/3T3 fibroblast cells; 20.3 ± 2.05% in the experiment with A2780 cells; less than 20% in the experiment with MDA-MB-231 cells. Moreover, the inhibition at 30 µM in the experiment on MCF-7 cells was 98.9 ± 0.18%; with SiHa cells it was 95.3 ± 1.23%; in the experiment on HeLa cells, 97.49 ± 0.52%; with NIH/3T3 fibroblast cells, 98.27 ± 0.37%; in the experiment with A2780 cells, 98.25 ± 0.4%; in the experiment on MDA-MB-231 cells it was 97.89 ± 0.66%.

Consider `COC(=O)[C@]1(C)CCC[C@@]2(C)[C@@H]3CC[C@@]4(CNCc5cccc6ccccc56)C[C@]3(CC[C@@H]21)C[C@H]4O` [Compound 26, (4R,4aS,6aR,8R,9S,11aR,11bS)-Methyl 8-hydroxy-4,11b-dimethyl-9-(((naphthalen-1-ylmethyl)amino)methyl)tetradecahydro-6a,9-methanocyclohepta[a]naphthalene-4-carboxylate], for which the inhibition at 10 µM in the experiment on MCF-7 cells amounted to 90.7 ± 1.57%; in the experiment with SiHa cells, 63.4 ± 0.91%; in the experiment with HeLa cells, 49.5 ± 1.23%; in the experiment with NIH/3T3 fibroblast cells it was 25.7 ± 1.93%; in the experiment on A2780 cells it was 61.4 ± 1.45%; in the experiment on MDA-MB-231 cells, 87.61 ± 0.59%. Moreover, the inhibition at 30 µM with MCF-7 cells was found to be 97.49 ± 0.53%; in the experiment with SiHa cells it was 86.9 ± 1.69%; with HeLa cells it was 93.6 ± 1.56%; with NIH/3T3 fibroblast cells, 95.6 ± 0.96%; in the experiment with A2780 cells it was 98.21 ± 0.43%; with MDA-MB-231 cells, 93.1 ± 1.53%.

For `COC(=O)[C@]1(C)CCC[C@@]2(C)[C@@H]3CC[C@@]4(CN[C@H](C)c5ccc6ccccc6c5)C[C@]3(CC[C@@H]21)C[C@H]4O` [Compound 29, (4R,4aS,6aR,8R,9S,11aR,11bS)-Methyl 8-hydroxy-4,11b-dimethyl-9-((((R)-1-(naphthalen-2-yl)ethyl)amino)methyl)tetradecahydro-6a,9-methanocyclohepta[a]naphthalene-4-carboxylate], the inhibition at 10 µM was 32.5 ± 0.92% with MCF-7 cells; less than 20% in the experiment with SiHa cells; less than 20% with HeLa cells; less than 20% in the experiment on NIH/3T3 fibroblast cells; 21.9 ± 0.73% in the experiment with A2780 cells; less than 20% in the experiment with MDA-MB-231 cells. For the same compound, the inhibition at 30 µM in the experiment with MCF-7 cells worked out at 93.08 ± 0.3%; in the experiment on SiHa cells, 79.5 ± 2.33%; in the experiment on HeLa cells, 92.17 ± 0.38%; in the experiment on NIH/3T3 fibroblast cells it was 32 ± 1.3%; in the experiment on A2780 cells it was 75 ± 1.79%; in the experiment on MDA-MB-231 cells, 95.3 ± 0.97%.

With `COC(=O)[C@]1(C)CCC[C@@]2(C)[C@@H]3CC[C@@]4(CN[C@H](C)c5cccc6ccccc56)C[C@]3(CC[C@@H]21)C[C@H]4O` [Compound 28, (4R,4aS,6aR,8R,9S,11aR,11bS)-Methyl 8-hydroxy-4,11b-dimethyl-9-((((R)-1-(naphthalen-1-yl)ethyl)amino)methyl)tetradecahydro-6a,9-methanocyclohepta[a]naphthalene-4-carboxylate], the inhibition at 10 µM in the experiment with MCF-7 cells was 90.63 ± 0.54%; in the experiment on SiHa cells, 63.4 ± 2.66%; with HeLa cells it was 46.8 ± 1.44%; with NIH/3T3 fibroblast cells, less than 20%; in the experiment with A2780 cells, 60.1 ± 2.24%; with MDA-MB-231 cells, 88 ± 0.54%. For the same compound, the inhibition at 30 µM with MCF-7 cells stood at 97.75 ± 0.39%; in the experiment on SiHa cells, 86.1 ± 3.79%; with HeLa cells, 94.66 ± 0.63%; with NIH/3T3 fibroblast cells, 94 ± 1.95%; in the experiment with A2780 cells, 98.53 ± 0.42%; in the experiment on MDA-MB-231 cells, 92.9 ± 1.04%.

As for `CC[C@H](NC[C@@]12CC[C@@H]3[C@@](CC[C@H]4[C@@]3(C)CCC[C@@]4(C)C(=O)OC)(C[C@H]1O)C2)c1ccccc1` [Compound 25, (4R,4aS,6aR,8R,9S,11aR,11bS)-Methyl 8-hydroxy-4,11b-dimethyl-9-((((S)-1-phenylpropyl)amino)methyl)tetradecahydro-6a,9-methanocyclohepta[a]naphthalene-4-carboxylate], the inhibition at 10 µM was 40.1 ± 1.44% in the experiment on MCF-7 cells; less than 20% in the experiment on SiHa cells; less than 20% in the experiment with HeLa cells; less than 20% in the experiment on NIH/3T3 fibroblast cells; less than 20% in the experiment with A2780 cells; less than 20% in the experiment on MDA-MB-231 cells. Besides, the inhibition at 30 µM was 78.8 ± 1.52% with MCF-7 cells; less than 20% in the experiment on SiHa cells; 32.2 ± 2.88% with HeLa cells; 93.7 ± 1.11% in the experiment with NIH/3T3 fibroblast cells; 73.83 ± 0.57% in the experiment with A2780 cells; 69.3 ± 1.96% with MDA-MB-231 cells.
